From ChEMBL document CHEMBL1158718, “4-Hydroxybenzoyl derivative from the aqueous extract of the hydroid Campanularia sp” (J Nat Prod, 2005)
The source made the active and inactive calls. The calls are words filed in the database; no cut-off is given here.

Columns and labels:
[1] = tested on: ARP1; assay: Induction of P21WAF1 gene expression in human ARP1 cells; assay type: functional, cell-based
[2] = tested on: ARP1; assay: Growth inhibition of human ARP1 cells up to 100 uM; assay type: functional, cell-based
[3] = target: Histone deacetylase (Homo sapiens) (UniProt Q13547+O15379+Q9UBN7+Q92769+Q9UQL6+Q8WUI4+Q9BY41+Q96DB2+P56524+Q9UKV0+Q969S8); assay: Inhibition of HDAC in human ARP1 cells; assay type: cell-based

Row | Compound | Activity [1] | Activity [2] | Activity [3]
1 | O=C(CCCCCCC(=O)Nc1ccccc1)NO | Active |  | 
2 | N=C(N)NCCCCNC(=O)C(=O)c1ccc(O)cc1 |  | inactive | inactive
